Measured values reported in patent US10407467B2, “Polymyxin derivatives and their use in combination therapy together with different antibiotics” (priority 2013, dated 2019).
Bridge positions count the residues as written; N and C are the ends. Square brackets hold non-standard residues; d marks the D form. Peptide text beside a SMILES is read from it. * marks the point of attachment. Dab = NCC[C@H](N)C(=O)O; X1 = CCCCCCC(O)C(=O)*

What was measured:
[1] = rats, 8 mg/kg BID regimen, seven days, compared to Colistin at the same dose regimen
Description: After one week acclimatisation, male Sprague-Dawley rats were surgically prepared with a jugular cannula and were housed individually, as required, either in pre-assigned housing cages or metabolic cages. Colistin and the Example Compounds were prepared in saline.
Compounds were introduced via the jugular cannula twice a day 7 hours apart for seven days. Each dose was increased progressively for three days up to the top dose that was then administered until termination of the study. Twenty-four hour urine collection (on ice) was performed at pre-dose and on days 4 and 7. The dose regimen is set out in Table 10 below.
The doses in the table are indicated in mg drug base/kg (free base).
The activity in urine of the N-acetyl-beta-D-glucosaminidase (NAG) was determined spectrophotometrically using the NAG assay kit from Roche Applied Science. Biomarkers of kidney injury were determined using the Kidney Injury Panel II from the Multi-Spot® Assay System (Meso Scale Discovery).

[2] = test system: Escherichia coli; experiment: MIC, compound in combination with a second agent (broth microdilution); format: cell-based
Procedure, shortened: (§1)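 Susceptibility was tested on up to four strains of each pathogen with the compound paired 1:1 by weight alongside another antibacterial. Values count both components together and use the lower duplicate if replicates agreed within 2-fold.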

[3] = test system: Acinetobacter baumannii; experiment: as above; format: cell-based
Procedure, shortened: as §1

[4] = test system: Klebsiella pneumoniae; experiment: as above; format: cell-based
Procedure, shortened: as §1

[5] = test system: Pseudomonas aeruginosa; experiment: as above; format: cell-based
Procedure, shortened: as §1

[6] = test system: Klebsiella pneumoniae ATCC10031; settings: 10 mg/kg/day, neutropenic mice thigh infection
Description: At 1 h, the CFU count was determined from 5 mice and the remaining mice (five per group) were treated with a subcutaneous injection of the drug at +1 and 6 hr post-infection.
Twenty-four hours after infection, the mice were euthanized humanely. The muscle of the right thigh of each animal was harvested, homogenized, serially diluted and plated on Brain Heart Infusion agar+0.5% charcoal (w/v) for CFU determination. Decrease of the total CFU of right thigh as compared to control counts at 24 h post-infection was determined for each dose group.

[7] = test system: Escherichia coli; experiment: MIC, sole activity (no second agent); format: cell-based
Procedure, shortened: (§2)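 First, isolated colonies grown 18-24 hours on Mueller-Hinton agar were suspended to 0.5 McFarland; next, up to four strains per pathogen were tested in duplicate in cation-adjusted MHB; finally, the lower concordant value or modal repeat value was reported against Polymyxin B.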

[8] = test system: Acinetobacter baumannii; experiment: MIC, sole activity (no second agent); format: cell-based
Procedure, shortened: as §2

[9] = test system: Klebsiella pneumoniae; experiment: MIC, sole activity (no second agent); format: cell-based
Procedure, shortened: as §2

[10] = test system: Pseudomonas aeruginosa; experiment: MIC, sole activity (no second agent); format: cell-based
Procedure, shortened: as §2

[11] = test system: HK-2 cell line; experiment: In vitro renal cell toxicity assay (resazurin reduction); format: cell-based, human
[12] = 1:1 combination with Ciprofloxacin, total drug concentration
[13] = 1:1 combination with Tigecycline, total drug concentration
[14] = 1:1 combination with Vancomycin, total drug concentration
[15] = 1:1 combination with Ciprofloxacin (by row order), total drug concentration
[16] = Second Agent none (Table 7B, by row order)

CCCCCCC(O)C(=O)N[C@H](C(=O)N[C@@H](CCN)C(=O)N[C@H]1CCNC(=O)[C@H]([C@@H](C)O)NC(=O)[C@H](CCN)NC(=O)[C@H](CCN)NC(=O)[C@H](CC(C)C)NC(=O)[C@@H](Cc2ccccc2)NC(=O)[C@H](CCN)NC1=O)[C@@H](C)O (stereo partly drawn) [Example 1, [2(R,S)-2-Hydroxyoctanoyl] polymyxin B nonapeptide] (X1-T[Dab][Dab][Dab][dF]L[Dab][Dab]T; lactam 3-C)
levels of the renal biomarkers NAG, albumin and cystatin C in urine [1]: significantly reduced levels | MIC E. coli NCTC9001 ([2]; 1:1 (wt:wt) combination with Rifampicin, MIC = total drug concentration, strain NCTC9001): 0.5 micrograms/mL | MIC E. coli ATCC25922 [2, 12]: ≤0.06 micrograms/mL | MIC E. coli CCUG 59342 [2, 12]: 2 micrograms/mL | MIC E. coli NCTC9001 [2, 12]: ≤0.06 micrograms/mL | MIC E. coli NCTC9001 [2, 13]: 4 micrograms/mL | MIC E. coli NCTC9001 [2, 14]: 4 microgram/mL | MIC E. coli NCTC9001 ([2]; E. coli NCTC9001, 1:1 combination with Meropenem, total drug concentration): 0.25 micrograms/mL | MIC A. baumannii CCUG57249 ([3]; 1:1 (wt:wt) combination with Rifampicin, MIC = total drug concentration, strain CCUG57249): 0.25 micrograms/mL | MIC A. baumannii NCTC 13424 ([3]; 1:1 (wt:wt) combination with Rifampicin, MIC = total drug concentration, strain NCTC 13424): 0.25 micrograms/mL | MIC A. baumannii NCTC 13424 [3, 15]: 0.5 micrograms/mL | MIC K. pneumoniae ATCC 4352 ([4]; 1:1 (wt:wt) combination with Rifampicin, MIC = total drug concentration, strain ATCC 4352): 1 micrograms/mL | MIC K. pneumoniae ATCC-BAA-2146 ([4]; 1:1 (wt:wt) combination with Rifampicin, MIC = total drug concentration, strain ATCC-BAA-2146): 2 micrograms/mL | MIC K. pneumoniae CCUG-59348 ([4]; 1:1 (wt:wt) combination with Rifampicin, MIC = total drug concentration, strain CCUG-59348): 2 micrograms/mL | MIC K. pneumoniae NCTC 13438 ([4]; 1:1 (wt:wt) combination with Rifampicin, MIC = total drug concentration, strain NCTC 13438): 1 micrograms/mL | MIC K. pneumoniae ATCC 4352 [4, 15]: ≤0.06 micrograms/mL | MIC K. pneumoniae ATCC BAA-1706 [4, 15]: 0.5 micrograms/mL | MIC K. pneumoniae CCUG 59348 [4, 12]: 32 micrograms/mL | MIC K. pneumoniae NCTC 13442 [4, 12]: 1 micrograms/mL | MIC K. pneumoniae CCUG 59348 [4, 13]: >32 micrograms/mL | MIC K. pneumoniae NCTC 13442 [4, 13]: 16 micrograms/mL | MIC K. pneumoniae CCUG 59348 [4, 14]: >32 microgram/mL | MIC K. pneumoniae CCUG 59626 [4, 14]: 2 microgram/mL | MIC K. pneumoniae NCTC 13442 [4, 14]: 8 microgram/mL | MIC K. pneumoniae ATCC BAA-1706 ([4]; K. pneumoniae ATCC BAA-1706, 1:1 combination with Meropenem, total drug concentration): 4 micrograms/mL | MIC K. pneumoniae CCUG 59348 ([4]; K. pneumoniae CCUG 59348, 1:1 combination with Meropenem, total drug concentration): >32 micrograms/mL | MIC K. pneumoniae NCTC 13442 ([4]; K. pneumoniae NCTC 13442, 1:1 combination with Meropenem, total drug concentration): 8 micrograms/mL | MIC P. aeruginosa ATCC 27853 ([5]; 1:1 (wt:wt) combination with Rifampicin, MIC = total drug concentration, strain ATCC 27853): 0.5 micrograms/mL | MIC P. aeruginosa ATCC-47 ([5]; 1:1 (wt:wt) combination with Rifampicin, MIC = total drug concentration, strain ATCC-47): 1 micrograms/mL | MIC P. aeruginosa CCUG 59626 ([5]; 1:1 (wt:wt) combination with Rifampicin, MIC = total drug concentration, strain CCUG 59626): 1 micrograms/mL | MIC P. aeruginosa ATCC 27853 [5, 15]: 0.125 micrograms/mL | MIC P. aeruginosa CCUG 59626 [5, 15]: 1 micrograms/mL | MIC P. aeruginosa CCUG 59626 [5, 13]: 2 micrograms/mL | MIC P. aeruginosa CCUG 59626 ([5]; P. aeruginosa CCUG 59626, 1:1 combination with Meropenem, total drug concentration): 2 micrograms/mL | reduction in bacterial counts [6]: approx. 2 log10 | MIC E. coli NCTC9001 ([7]; E. coli NCTC9001, second agent none): 4 micrograms/mL | MIC E. coli NCTC9001 ([7]; Second Agent none (Table 7A)): 4 microgram/mL | MIC E. coli ATCC25922 ([7]; Second Agent none (Table 7B)): 4 micrograms/mL | MIC E. coli CCUG 59342 ([7]; Second Agent none (Table 7B)): 1 micrograms/mL | MIC E. coli NCTC9001 ([7]; Second Agent none (Table 7B)): 8 micrograms/mL | MIC E. coli NCTC9001 ([7]; Second Agent none (Table 7C)): 4 micrograms/mL | MIC E. coli ATCC25922 ([7]; in the absence of Rifampicin, strain ATCC25922): 2 micrograms/mL | MIC E. coli NCTC9001 ([7]; in the absence of Rifampicin, strain NCTC9001): 2 micrograms/mL | MIC A. baumannii NCTC 13424 [8, 16]: 4 micrograms/mL | MIC A. baumannii ATCCBAA-747 ([8]; in the absence of Rifampicin, strain ATCCBAA-747): 2 micrograms/mL | MIC A. baumannii NCTC 13423 ([8]; in the absence of Rifampicin, strain NCTC13423): 1 micrograms/mL | MIC K. pneumoniae ATCC BAA-1706 ([9]; K. pneumoniae ATCC BAA-1706, second agent none): 4 micrograms/mL | MIC K. pneumoniae CCUG 59348 ([9]; K. pneumoniae CCUG 59348, second agent none): >32 micrograms/mL | MIC K. pneumoniae NCTC 13442 ([9]; K. pneumoniae NCTC 13442, second agent none): 8 micrograms/mL | MIC K. pneumoniae CCUG 59348 ([9]; Second Agent none (Table 7A)): >32 microgram/mL | MIC K. pneumoniae CCUG 59626 ([9]; Second Agent none (Table 7A)): 2 microgram/mL | MIC K. pneumoniae NCTC 13442 ([9]; Second Agent none (Table 7A)): 8 microgram/mL | MIC K. pneumoniae CCUG 59348 ([9]; Second Agent none (Table 7B)): >32 micrograms/mL | MIC K. pneumoniae NCTC 13442 ([9]; Second Agent none (Table 7B)): 8 micrograms/mL | MIC K. pneumoniae ATCC 4352 [9, 16]: 1 micrograms/mL | MIC K. pneumoniae ATCC BAA-1706 [9, 16]: 4 micrograms/mL | MIC K. pneumoniae CCUG 59348 ([9]; Second Agent none (Table 7C)): >32 micrograms/mL | MIC K. pneumoniae NCTC 13442 ([9]; Second Agent none (Table 7C)): 8 micrograms/mL | MIC K. pneumoniae ATCC 4352 ([9]; in the absence of Rifampicin, strain ATCC 4352): 1 micrograms/mL | MIC K. pneumoniae CCUG-59348 ([9]; in the absence of Rifampicin, strain CCUG-59348): >32 micrograms/mL | MIC P. aeruginosa CCUG 59626 ([10]; P. aeruginosa CCUG 59626, second agent none): 2 micrograms/mL | MIC P. aeruginosa ATCC 27853 [10, 16]: 0.5 micrograms/mL | MIC P. aeruginosa CCUG 59626 [10, 16]: 2 micrograms/mL | MIC P. aeruginosa CCUG 59626 ([10]; Second Agent none (Table 7C)): 2 micrograms/mL | MIC P. aeruginosa ATCC 27853 ([10]; in the absence of Rifampicin, strain ATCC27853): 0.5 micrograms/mL | MIC P. aeruginosa ATCCCRM-9027 ([10]; in the absence of Rifampicin, strain ATCCCRM-9027): 0.25 micrograms/mL | MIC P. aeruginosa CCUG 59626 ([10]; in the absence of Rifampicin, strain CCUG 59626): 2 micrograms/mL | HK-2 toxicity (IC50) compared with PMB [11]: significantly increased recorded IC50 values
